{
  "source": "patent US6828450B2",
  "about": "“Triptycene analogs” (Kansas State University Research Foundation, priority 2000, dated 2004)",
  "key": {"L1210 cells [1]": {"tested_on": "L1210 cells", "assay": "Nucleoside transport (30-sec cellular uptake) in L1210 cells", "assay_type": "cell-based, murine", "description": "FIG. 10. Concentration-dependent inhibition of nucleoside transport by the TT analog TT2 in L1210 cells in vitro. […] After washing thrice with PBS, intact cell pellets were harvested by centrifugation, incubated for 30 min in 1 ml of HLB containing 0.2% Triton X-100, and these lysates were mixed with scintillation cocktail and counted to estimate the cellular uptake of ^3H-thymidine. Results are expressed as % of ^3H-thymidine transported into vehicle-treated control cells over 30 sec (15,031±872 cpm; 100±6%; striped area).\nFIG. 11. Comparison of the inhibitory effects of novel TT analogs on DNA synthesis (open) and nucleoside transport (striped) in L1210 cells in vitro. The cellular uptake of ^3H-thymidine (striped) and the rate of ^3H-thymidine incorporation into DNA (open) were determined in cells (1.38×10^6/0.5 ml of RPMI 1640 medium) respectively preincubated at 37° C. for 15 or 90 min in the presence or absence (control) of 7 μM concentrations of the indicated compounds. For the cellular transport of nucleosides, preincubated cells were then exposed to 1 μCi of ^3H-thymidine for 30 sec at 37° C. Results are expressed as % of ^3H-thymidine transported into vehicle-treated control cells over 30 sec (15,539±1,767 cpm; 100±11%; striped control). For DNA synthesis, preincubated cells were then pulse-labeled with 1 μCi of ^3H-thymidine for an additional 30 min at 37° C. Results are expressed as % of ^3H-thymidine incorporation into DNA in vehicle-treated control cells over 30 min (28,505±2,594 cpm; 100±9%; open control). The blank value (1,075±171 cpm) for cells incubated and pulse-labeled at 2° C. with 1 μCi of ^3H-thymidine has been substracted from the results. Bars: means±SD (n=3). ^aNot different from TT3, TT7, TT9 and TT11; ^bP<0.01, smaller than TT1 but not different from TT13; ^cnot different from control; ^dP<0.025, greater than TT1; ^eP<0.05, smaller than control.\nFIG. 12. Irreversibility of the inhibitory effects of the novel TT analog TT2 on DNA synthesis (open) and nucleoside transport (striped) in L1210 cells in vitro. […] The cellular uptake of ^3H-thymidine (striped) and the rate of ^3H-thymidine incorporation into DNA (open) were determined in cells (1.64×10^6/0.5 ml of RPMI 1640 medium) respectively preincubated at 37° C. for 15 or 60 min in the presence or absence (control) of 10 and 25 μM TT2 or 25 μM H10. The protocol of the experiments and the determination of the results were identical to those of FIGS. 9 and 10, except that, after preincubation, either the drugs were maintained in the culture medium (+) or the cells were spun, washed, and resuspended in fresh medium in order to remove the drugs (−). After preincubation, vehicle-treated controls were similarly spun and washed. For the cellular transport of nucleosides, preincubated cells were then exposed, in the presence (+) or absence (−) of TT2 or H10, to 1 μCi of ^3H-thymidine for 30 sec at 37° C. Results are expressed as % of ^3H-thymidine transported into vehicle-treated control cells over 30 sec (11,054±754 cpm; 100±7%; striped control+; 14,486±1,260 cpm; 100±9%; striped control−). For DNA synthesis, preincubated cells were then pulse-labeled with 1 μCi of ^3H-thymidine for an additional 30 min at 37° C. in the presence (+) or absence (−) of TT2 or H10. Results are expressed as % of ^3H-thymidine incorporation into DNA in vehicle-treated control cells over 30 min (34,052±1,566 cpm; 100±5%; open control+; 28,811±2,506 cpm; 100±9%; open control−). The blank value (1,328±86 cpm) for cells incubated and pulse-labeled at 2° C. with 1 μCi of ^3H-thymidine has been substracted from the results. Bars: means±SD (n=3).\nL1210 cells (about 1.5×10^6 cells/0.5 ml) were preincubated for 15 min at 37° C. in the presence or absence of TTs and then exposed to 1 μCi of ^3H-thymidine for only 30 sec to assess the cellular uptake of nucleoside over such very short period of time. […]"}, "L1210 cells [2]": {"tested_on": "L1210 cells", "assay": "L1210 tumor cell proliferation assay (Coulter counter)", "conditions": "for concentration giving almost total (maximal) inhibition of proliferation and viability: growth and viability; for IC50: read-out: IC50, inhibition of L1210 cell proliferation; for inhibition at 0.041 µM: read-out: % inhibition of L1210 cell proliferation", "description": "FIG. 1. […] For tumor cell growth and viability, L1210 cells were respectively seeded in triplicate at initial densities of 1×10^4 and 1.11×10^4 cells/0.5 ml/well in RPMI 1640 medium containing 7.5% FCS and penicillin (100 IU/ml)-streptomycin (100 μg/ml), and grown for 4 days in the presence or absence (control) of 256 nM concentrations of the indicated compounds in a humidified incubator at 37° C. with 5% CO2 in air. Cell density was monitored using a Coulter counter. […] The ability of viable cells/0.5 ml to bioreduce 0.1 ml of MTS:PMS (20:1) reagent over a 3-h incubation period at 37° C. was assessed by measuring the absorbamce of the water-soluble formazan products at A490 nm.\nFIG. 3. […] The protocol of the experiment was identical to that of FIG. 1. […] Drug concentrations are plotted on a logarithmic scale.\nTT0 was purchased from Aldrich (Milwaukee, Wis.). All solutions of synthetic TTs and tricyclic pyrone H10, vincristine (VCR; a gift from Lilly Researeh Laboratories, Indianapolis, Ind.) and camptothecin (CPT; from Sigma Chemical Co., St Louis, Mo.) were dissolved and diluted in dimethyl sulfoxide (DMSO), whereas daunomycin (DAU) (from Sigma) solutions were prepared in 0.1 M potassium phosphate buffer, pH 7.4, containing 0.9% NaCl. Suspension cultures of murine L1210 lymphocytic leukemia cells (American Type Culture Collection, Rockville, Md.) were maintained in continuous exponential growth by twice-a-week passage in RPMI 1640 medium supplemented with 7.5% fortified bovine calf serum (FCS; HyClone Laboratories, Logan, Utah) and penicillin (100 IU/ml)-streptomycin (100 μg/ml), and incubated in the presence or absence of drugs at 37° C. in a humidified atmosphere containing 5% CO2. […] Control cells incubated in the absence of drugs were similarly treated with vehicle only and, in every experiment, all incubates received the same volume of solvent. For drug removal, incubates were spun at 200×g for 10 min, drug-containing supernatants were discarded, and intact cells were washed thrice with 1 ml of the above RPMI 1640 culture medium and resuspended in 0.5 ml of fresh medium for further incubation.\nFor tumor cell growth, L1210 cells were resuspended in fresh FCS-containing RPMI 1640 medium, plated at an initial density of 1×10^4 cells/0.5 ml, and incubated in 48-well Costar cell culture plates (Costar, Cambridge, Mass.). Except when otherwise specified, cells were grown for 4 days in the presence or absence of drugs and their density was monitored every 24 h using a Coulter counter (Coulter Electronics, Luton Beds, UK)."}},
  "note": "“Also recorded” adds a separate entry of the source. Read-outs that look alike come from different tables or passages of the source.",
  "data": [
    {"smiles": "COC1=C(Br)C(=O)C2=C(C1=O)C1C3=C(C(=O)C=C(N(C)C)C3=O)C2c2ccccc21", "note": "(stereo not drawn) [TT16, 2-Bromo-3-methoxy-6-(dimethylamino)-9,10-dihydro-9,10-[1′,2′]benzenoanthracene-1,4,5,8-tetraone]", "values": [
      {"measurement": "potency on cellular transport of adenosine and thymidine compared with TT2", "setting": "L1210 cells [1]; FIG. 13", "result": "as potent as TT2"}
    ]},
    {"smiles": "COC1=CC(=O)C2=C(C1=O)C1C3=C(C(=O)C=CC3=O)C2c2ccccc21", "note": "(stereo not drawn) [TT2, 2-Methoxy-9,10-dihydro-9,10-[1′,2′]benzenoanthracene-1,4,5,8-tetraone]", "values": [
      {"measurement": "times DAU is more cytostatic/cytotoxic than TT2", "setting": "L1210 cells [2]", "result": "3.5-6 times"},
      {"measurement": "% inhibition of L1210 cell proliferation", "setting": "L1210 cells [2]; 256 nM TT2, day 2", "result": 44, "unit": "%"},
      {"measurement": "% inhibition of L1210 cell growth (cytostatic)", "setting": "L1210 cells [2]; 256 nM, 4 days, 0.256 µM", "result": 68, "unit": "%"},
      {"measurement": "concentration giving almost total (maximal) inhibition of proliferation and viability", "setting": "L1210 cells [2]; day 4", "result": "≥ 640", "unit": "nM"},
      {"measurement": "IC50", "setting": "L1210 cells [2]; day 2", "result": 300, "unit": "nM"},
      {"measurement": "IC50", "setting": "L1210 cells [2]; day 4", "result": 150, "unit": "nM"},
      {"measurement": "% inhibition of nucleoside transport", "setting": "L1210 cells [1]; 10 μM TT2, 15-min preincubation", "result": 67, "unit": "%"},
      {"measurement": "effect on nucleoside transport", "setting": "L1210 cells [1]; 25 μM TT2", "result": "totally inhibited"},
      {"measurement": "% inhibition of nucleoside transport", "setting": "L1210 cells [1]; 25 μM TT2, 15-min preincubation", "result": 93, "unit": "%"},
      {"measurement": "reversibility of the inhibition of nucleoside transport upon drug removal", "setting": "L1210 cells [1]; 10 and 25 μM TT2 or 25 μM H10, 15-min preincubation", "result": "irreversible"},
      {"measurement": "IC50", "setting": "L1210 cells [1]; 15-min pretreatment, 30-sec uptake, read-out: IC50, inhibition of cellular transport of nucleosides", "result": 6000, "unit": "nM"}
    ]},
    {"smiles": "COC(=O)C1=C(C(=O)OC)C[C@H]2[C@@H](C1)[C@@H](O)C1=C(C3C4=C(C1c1ccccc13)[C@@H](O)[C@H]1CC(C(=O)OC)=C(C(=O)OC)C[C@H]1[C@H]4O)[C@H]2O", "note": "[TT12, (4aS*,5S*,7R*,12S*,14R*,7aR*,11aS*,14aR*)-Tetramethyl 1,4,4a,5,6,7,7a,8,11,11a,12,13,14,14a-tetradecahydro-5,7,12,14-tetrahydroxy-6,13-[1′,2′]benzenopentacene-2,3,9,10-tetracarboxylate]", "values": [
      {"measurement": "inhibitory effect on L1210 cell growth", "setting": "L1210 cells [2]; 256 nM, 4 days", "result": "inactive"},
      {"measurement": "effect on nucleoside transport", "setting": "L1210 cells [1]; 7 μM, 15 min", "result": "alter neither"}
    ]},
    {"smiles": "COC(=O)C1=C(C(=O)OC)C[C@H]2C(=O)C3=C(C(=O)[C@H]2C1)C1C2=C(C(=O)[C@H]4CC(C(=O)OC)=C(C(=O)OC)C[C@H]4C2=O)C3c2ccccc21", "note": "[TT4, (4aS*,7aR*,11aS*,14aR*)-Tetramethyl 1,4,4a,5,6,7,7a,8,11,11a,12,13,14,14a-tetradecahydro-5,7,12,14-tetraoxo-6,13-[1′,2′]benzenopentacene-2,3,9,10-tetracarboxylate]", "values": [
      {"measurement": "inhibitory effect on L1210 cell growth", "setting": "L1210 cells [2]; 256 nM, 4 days", "result": "inactive"},
      {"measurement": "effect on nucleoside transport", "setting": "L1210 cells [1]; 7 μM, 15 min", "result": "alter neither"}
    ]},
    {"smiles": "COc1cccc2c1C(=O)c1c(O)c3c(c(O)c1C2=O)C[C@@](O)(C(C)=O)C[C@@H]3O[C@H]1C[C@H](N)[C@H](O)[C@H](C)O1", "note": "[DAU, daunomycin, reference compound]", "values": [
      {"measurement": "times DAU is more cytostatic than TT2", "setting": "L1210 cells [2]; L1210, from IC50 values", "result": "about 6 times"},
      {"measurement": "times DAU is more cytostatic/cytotoxic than TT2", "setting": "L1210 cells [2]; L1210, growth and viability, 4 days", "result": "3.5-6 times"},
      {"measurement": "inhibition at 0.041 µM", "setting": "L1210 cells [2]; Mus musculus, L1210, 48 h", "result": 42, "unit": "%"},
      {"measurement": "IC50", "setting": "L1210 cells [2]; Mus musculus, L1210, 48 h", "result": 50, "unit": "nM"},
      {"measurement": "inhibition at 0.041 µM", "setting": "L1210 cells [2]; Mus musculus, L1210, 96 h", "result": 77, "unit": "%"},
      {"measurement": "IC50", "setting": "L1210 cells [2]; Mus musculus, L1210, 96 h", "result": 25, "unit": "nM"},
      {"measurement": "concentration giving almost total (maximal) inhibition of proliferation and viability", "setting": "L1210 cells [2]; day 4", "result": 102, "unit": "nM"},
      {"measurement": "effect of DAU on cellular transport of nucleosides", "setting": "L1210 cells [1]; 15-min treatment, 30-sec uptake, 10 μM DAU", "result": "inactive; also recorded: totally unable"}
    ]}
  ]
}
